Patent US20260306434A1, “VERY LONG CHAIN FATTY ACIDS FOR USE IN MINERALIZATION” (Epax Norway AS, priority 2023, published 2026)

Columns and labels:
[1] = tested on: hFOB 1.19 human foetal osteoblasts; test: Fatty acid composition of hFOB cells (Ex. 4); assay type: cell-based; details: 2 μM; 7 days
Procedure: Total lipids were extracted from homogenised tissue or sonicated extracts of cells (for Ex. 4) following the method previously described by Folch et al., For both skin tissue and whole-body analyses, pooled samples from each tank (n=10 per tank, n=30 per diet group) were analysed for lipid composition. For cells, three individual cell culture flasks per treatment group were analysed. The fatty acid composition was analysed using the method described by Mason and Waller.
Methyl esters were separated and analysed in a GC (Hewlett Packard 6890; HP) with a split injector using an SGE BPX70 capillary column (length, 60 m; internal diameter, 0.25 mm; and film thickness, 0.25 um; SGE Analytical Science) flame ionsation detector, and HP chem Station software. Helium was used as the carrier gas, and both the injector and detector temperatures were 280° C. The oven temperature started at 50° C. for 1.2 min and then increased […] to 170° C. at a rate of 4° C./min, followed by 200° C. at a rate of 0.5° C./min, and finally 280° C. at a rate of 10° C./min. The individual fatty acid peaks were identified by comparing the retention times with validated standards; GLC reference 463 and 85 (Nu-chek Prep, Elysian, MN). The absolute amount of fatty acid per gram of tissue or cells was calculated using 23:0 methyl ester as an internal standard (IS). Unidentified peaks were not included in the total fatty acid calculation.
The VLC-PUFA composition of cells and whole-body extracts was analysed using a Scion TQ 8300 GC-MS/MS with a split/splitless injector (splitless 1 min) with a Restek Rxi-5 ms capillary column (length, 30 m; internal diameter, 0.25 mm; and film thickness, […]). Hydrogen was used as the carrier gas, with split-injection and detector temperatures of 250° C. and 270° C., respectively. The oven temperature started at 90° C. for 1.5 min and was ramped up to 220° C. at a rate of 30° C./min, then 275° C. at a rate of 1.21° C./min, and finally 310° C. at a rate of 6.5° C./min. The instrument was run in MRM mode with 79.1-77.1 and 79-55.1 as transitions for VLC PUFAs and 143.1-55.1 for C23:0. The response factor for DHA (relative to C23:0) was calculated using standard solutions of known concentrations of DHA and C23:0. As no standards for VLC fatty acids were available for the VLC-PUFAs, the same response factor as for DHA was assumed and used to calculate concentrations of VLC-PUFAs.
A human foetal osteoblast cell line (hFOB 1.19, ATCC, CRL-11372) was used in the experiments. Cells were cultured according to the manufacturer's instructions. Basal medium comprised a 1:1 mixture of Ham's F12 Medium Dulbecco's Modified Eagle's Medium with 2.5 mM L-glutamine (without phenol red) (Sigma-Aldrich, Darmstadt, Germany). Complete growth medium was prepared using 0.3 mg/mL G418 (Sigma-Aldrich, Darmstadt, Germany) supplemented with 10% foetal bovine serum (T7524, Sigma-Aldrich, Darmstadt, Germany). Cells were incubated at 34° C., with 5% C02 (In-Vitro Cell NU-8600E, NUAIRE, Minnesota, U.S.) and sub-cultured at approximately 80% confluency at a ratio of 1:4. Growth medium was renewed every 2-3 days. Cells cultured for differentiation were supplemented with osteogenic factors, ascorbic acid (100 μg/mL; A8960, Sigma-Aldrich, Darmstadt, Germany) and β-glycerophosphate (10 mM; G9422, Sigma-Aldrich, Darmstadt, Germany). Once the cells reached confluency, the temperature was increased to 37° C. to stop proliferation and induce differentiation. The osteogenic media was renewed every 2-3 days.
Fatty acids were added to the growth media in the form of their sodium salts bound to bovine serum albumin (BSA, Sigma-Aldrich, Darmstadt, Germany; 2.7:1 molar ratio). The pH was adjusted to 7 using NH4OH. n-3 VLC-PUFA (the VLC-PUFA concentrate of Table 3.1, right column) and DHA (Sigma-Aldrich, Darmstadt, Germany) concentrates were prepared as 1 and 8 mM stocks, respectively, and were added to the media at concentrations of 1 and 2 μM. […]

[2] = tested on: primary Atlantic salmon keratocytes; test: Cell migration of primary Atlantic salmon keratocytes from scales (Ex. 2); assay type: cell-based; details: 25 ng/mL; 24 h; vs control (P=0.0145)
Procedure: In these cell culture experiments fatty acids were added to growth media in the form of their sodium salts bound to bovine serum albumin (BSA; 2.7:1 molar ratio). The pH was adjusted to 7 using NH4OH. DHA was purchased from Sigma (Sigma Aldrich, Darmstadt, Germany). The n-3 VLCPUFA 26:6 n-3 and VLC-Conc2 (Table 1.1) were both prepared as 1-mM stock solutions and DHA was prepared as an 8-mM stock solution. All fatty acid solutions were stored at −80° C.
Growth medium (GM) was prepared as L-15 (11544436, Fischer Scientific) supplemented with 5% FBS (F2442, Sigma-Aldrich), 1% anti/anti (A5955, Sigma-Aldrich; 15240062 Fischer Scientific), and 1% HEPES (H0887, Sigma-Aldrich). The test substrates added were either 25 ng/mL fibroblast growth factor (FGF) (106096-93-9, Sigma-Aldrich), 10 μM VLCPUFA (26:6 n-3), or 20 μM VLCPUFA (26:6 n-3). Controls were left untreated. […]
The day after isolation, all wells were inspected under a microscope to determine the migration potential of the scales. All scales with migration were counted to determine the immediate effect of the VLCPUFA on cell migration. […] The number of scales with cell migration was counted and divided by the number of attached scales to calculate the percentage of scales with cell migration, as attachment is a prerequisite for cell migration. […]
For histology, five fish from each tank, giving a total of 15 fish per treatment, were analysed. […]

CC/C=C\C/C=C\C/C=C\C/C=C\C/C=C\C/C=C\CCC(=O)O [DHA, docosahexaenoic acid]
14:0, mean [1]: 38.3 μg/g sample
16:0, mean [1]: 648.5 μg/g sample
16:2 n-6, mean [1]: 52.5 μg/g sample
17:0, mean [1]: 12.5 μg/g sample
18:0, mean [1]: 315.8 μg/g sample
18:1 n-7, mean [1]: 135.0 μg/g sample
18:1 n-9, mean [1]: 554.6 μg/g sample
18:2 n-6, mean [1]: 40.6 μg/g sample
18:3 n-6, mean [1]: 11.5 μg/g sample
20:0, mean [1]: 10.1 μg/g sample
20:1 n-9, mean [1]: 16.2 μg/g sample
20:1 n-11, mean [1]: 7.1 μg/g sample
20:2 n-6, mean [1]: 18.8 μg/g sample
20:3 n-6, mean [1]: 20.6 μg/g sample
20:4 n-3, mean [1]: 8.8 μg/g sample
20:4 n-6, mean [1]: 106.7 μg/g sample
20:5 n-3, mean [1]: 19.3ab μg/g sample
22:0, mean [1]: 7.3 μg/g sample
22:4 n-6, mean [1]: 13.7 μg/g sample
22:5 n-3, mean [1]: 26.2 μg/g sample
24:1 n-9, mean [1]: 3.9 μg/g sample
24:5 n-3, mean [1]: 76.5 μg/g sample
24:6 n-3, mean [1]: 56.5 μg/g sample
26:5 n-3, mean [1]: 1.7ab μg/g sample
26:6 n-3, mean [1]: 3.3ab μg/g sample
28:8 n-3, mean [1]: 0.0a μg/g sample
SUM EPA/DHA, mean [1]: 115.6b μg/g sample
SUM FA, mean [1]: 2670.3 μg/g sample
Sum of MUFAs, mean [1]: 871.5 μg/g sample
Sum of SFAs, mean [1]: 1045.0 μg/g sample
Sum of n-3 PUFAs, mean [1]: 164.0ab μg/g sample
Sum of n-6 PUFAs, mean [1]: 226.2 μg/g sample
Sum others, mean [1]: 168.3 μg/g sample

fibroblast growth factor [FGF]
scales with cell migration [2]: significant difference
